20 compounds from ChEMBL document CHEMBL1201862, “PubChem BioAssay data set” (2004) can be followed below.

A short description of assay [1]: A Cell Based Secondary Assay To Explore Cytotoxicity of Compounds that Sensitize Mycobacterium Tuberculosis to Beta-Lactam Antibiotics. Format: functional.
Assay [2] deals with T1, Short transient receptor potential channel 4 (Mus musculus, UniProt Q9QUQ5).
T1 sequence (Q9QUQ5 whole entry): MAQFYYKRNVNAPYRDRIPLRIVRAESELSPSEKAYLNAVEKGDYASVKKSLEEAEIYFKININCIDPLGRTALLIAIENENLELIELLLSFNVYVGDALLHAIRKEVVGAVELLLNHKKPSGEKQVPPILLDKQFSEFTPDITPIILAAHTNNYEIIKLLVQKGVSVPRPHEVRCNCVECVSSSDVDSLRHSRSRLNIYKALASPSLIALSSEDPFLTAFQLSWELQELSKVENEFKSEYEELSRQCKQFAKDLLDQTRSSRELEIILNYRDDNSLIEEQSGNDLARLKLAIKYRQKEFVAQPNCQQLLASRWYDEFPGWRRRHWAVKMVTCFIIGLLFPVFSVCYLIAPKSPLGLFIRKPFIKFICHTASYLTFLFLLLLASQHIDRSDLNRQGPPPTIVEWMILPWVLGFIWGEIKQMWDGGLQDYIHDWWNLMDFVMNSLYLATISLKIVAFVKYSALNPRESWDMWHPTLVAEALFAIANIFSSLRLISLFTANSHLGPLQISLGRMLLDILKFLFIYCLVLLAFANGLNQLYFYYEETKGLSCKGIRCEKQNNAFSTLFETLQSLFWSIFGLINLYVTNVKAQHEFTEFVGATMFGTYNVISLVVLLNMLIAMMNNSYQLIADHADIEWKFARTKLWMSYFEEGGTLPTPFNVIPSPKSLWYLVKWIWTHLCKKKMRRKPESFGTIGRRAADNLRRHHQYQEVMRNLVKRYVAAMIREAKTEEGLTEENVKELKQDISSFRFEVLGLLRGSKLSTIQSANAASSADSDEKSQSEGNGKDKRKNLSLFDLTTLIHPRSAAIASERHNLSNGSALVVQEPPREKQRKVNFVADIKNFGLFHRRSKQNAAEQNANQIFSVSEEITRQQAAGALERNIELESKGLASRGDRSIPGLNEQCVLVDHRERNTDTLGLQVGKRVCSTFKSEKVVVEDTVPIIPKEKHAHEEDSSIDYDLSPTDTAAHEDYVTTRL
The experiment in a line: calcium entry via TRPC4 opening agents – cell-based, HEK293 TRPC4/mu-opioid, Fluo-4 calcium, dose response (AID 434937). The class given is functional.

The nature of assay [3]: viability loss of HPDE-C7K cells – cell-based, fluorescence, HTS, primary screen (AID 431). Format: functional. Conditions: Homo sapiens.
Assay [4] is described as follows: HPDE-C7 pancreatic duct cell viability loss – fluorescence, HTS (AID 430). The class given is functional, cell-based. Conditions: Homo sapiens.
For assay [5], the target named is T2, Bcl-2-related protein A1 (Mus musculus, UniProt Q07440).
T2 sequence (Q07440 whole entry): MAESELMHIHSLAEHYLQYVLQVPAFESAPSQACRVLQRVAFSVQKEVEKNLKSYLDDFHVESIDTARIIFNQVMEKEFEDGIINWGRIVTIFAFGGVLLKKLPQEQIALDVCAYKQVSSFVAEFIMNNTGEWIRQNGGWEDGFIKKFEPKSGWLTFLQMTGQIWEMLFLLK
Description: small-molecule antagonists of Bfl-1/BH3 interaction – biochemical, TR-FRET, mouse Bfl-1, confirmation (AID 621).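 Further: TR-FRET binding of GST-Bfl-1 to FITC-labelled Bid peptide via terbium antibody.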 Background: TR-FRET usually uses a lanthanide donor and a delayed reading to cut background.

Assay [6] addresses T2, Bcl-2-related protein A1. Description: Bfl-1 binding inhibitors, SAR follow-up, biochemical, fluorescence polarization (AID 1070).
The target of assay [7] is Glyceraldehyde-3-phosphate dehydrogenase (Homo sapiens, UniProt P04406).
Assay [8] has as its target T3, Alkaline phosphatase, tissue-nonspecific isozyme (Homo sapiens, UniProt P05186).
T3 sequence (P05186 whole entry): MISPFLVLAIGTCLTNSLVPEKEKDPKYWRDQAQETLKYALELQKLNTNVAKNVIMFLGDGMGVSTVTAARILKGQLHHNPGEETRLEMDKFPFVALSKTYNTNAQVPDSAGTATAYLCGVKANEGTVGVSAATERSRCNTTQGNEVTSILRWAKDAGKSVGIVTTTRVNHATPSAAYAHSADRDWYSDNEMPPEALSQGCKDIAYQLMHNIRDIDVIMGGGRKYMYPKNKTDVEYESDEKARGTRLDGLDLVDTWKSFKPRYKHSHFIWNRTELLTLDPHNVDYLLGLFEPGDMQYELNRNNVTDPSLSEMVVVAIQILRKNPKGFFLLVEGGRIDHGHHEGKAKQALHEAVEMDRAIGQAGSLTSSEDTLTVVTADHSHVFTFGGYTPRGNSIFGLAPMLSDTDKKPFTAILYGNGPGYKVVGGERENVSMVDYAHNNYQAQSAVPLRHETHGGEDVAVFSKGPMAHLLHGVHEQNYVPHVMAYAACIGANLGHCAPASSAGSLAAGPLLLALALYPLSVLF
The experiment in a line: potency against alkaline phosphatase TNAP – biochemical, luminescent, dose response, SAR follow-up (AID 1056).

Assay [9] addresses T1, Short transient receptor potential channel 4. The experiment in a line: block of DAMGO-driven TRPC4 calcium entry – cell-based, HEK293 TRPC4/mu-opioid, Fluo-4 calcium, dose response (AID 434942).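 Further: potency of inhibitors blocking the TRPC4 calcium response.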 The class given is functional.
Assay [10] concerns the target T4, SUMO-activating enzyme (Homo sapiens, UniProt Q9UBT2). The experiment in a line: blockers of UBC9-mediated SUMO conjugation – biochemical, AlphaScreen, SUMOylation inhibitor project, confirmation (AID 2018). The class given is functional.
Assay [11] concerns the target T4, SUMO-activating enzyme. The experiment in a line: blockers of SAE1/SAE2–UBC9 SUMO transfer – biochemical, HTRF, uHTS, primary screen (AID 2006). The class given is protein-complex assay.
Assay [12] can be described thus: loss of viability in HepG2 cells – cell-based, CellTiter-Glo, cherry-picked, cytotoxicity control for Shn3 inhibitor project, dose response (AID 624134). The class given is functional.
The target in assay [13] is T5, Zinc finger protein mex-5 (Caenorhabditis elegans, UniProt Q9XUB2).
T5 sequence (Q9XUB2 whole entry): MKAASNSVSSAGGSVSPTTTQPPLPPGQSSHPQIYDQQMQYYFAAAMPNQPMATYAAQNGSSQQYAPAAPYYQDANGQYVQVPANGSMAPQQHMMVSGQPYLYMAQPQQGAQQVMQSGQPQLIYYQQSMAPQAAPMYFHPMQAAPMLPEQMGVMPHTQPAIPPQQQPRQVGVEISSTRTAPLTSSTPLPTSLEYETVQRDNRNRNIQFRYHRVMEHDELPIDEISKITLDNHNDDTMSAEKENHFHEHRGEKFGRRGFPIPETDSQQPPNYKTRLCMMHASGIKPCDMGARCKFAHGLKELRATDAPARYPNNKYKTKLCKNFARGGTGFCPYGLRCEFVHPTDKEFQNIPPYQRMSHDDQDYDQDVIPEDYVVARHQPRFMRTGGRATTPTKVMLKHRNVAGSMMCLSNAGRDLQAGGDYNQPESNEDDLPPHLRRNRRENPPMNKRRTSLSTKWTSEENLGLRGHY
Description: potency of MEX-5 RNA-binding blockers – biochemical, C. elegans, fluorescence polarization, dose response (AID 1960). Background: Polarisation of emitted light reports the rotation of a fluorescent probe.

The target of assay [14] is Luciferin 4-monooxygenase (Photinus pyralis, UniProt P08659). Description: inhibition of purified Photinus pyralis luciferase – biochemical, luminescence, dose response (AID 1891).
Assay [15] deals with T6, RNA-binding protein pos-1 (Caenorhabditis elegans, UniProt G5EF15).
T6 sequence (G5EF15 whole entry): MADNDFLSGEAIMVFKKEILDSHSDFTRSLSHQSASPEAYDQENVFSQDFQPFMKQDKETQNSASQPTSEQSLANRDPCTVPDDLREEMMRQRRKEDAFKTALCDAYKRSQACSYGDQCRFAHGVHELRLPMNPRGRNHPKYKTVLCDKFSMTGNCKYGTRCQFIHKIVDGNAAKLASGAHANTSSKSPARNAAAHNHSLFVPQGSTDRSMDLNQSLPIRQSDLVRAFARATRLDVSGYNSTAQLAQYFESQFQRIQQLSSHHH
The experiment in a line: disruptors of C. elegans POS-1 RNA interaction – biochemical, fluorescence polarization, dose response (AID 1964).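 Further: purified POS-1 fused to maltose binding protein made in E. coli; potency of compounds blocking POS-1 binding to fluorescent RNA.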

Assay [16] is described as follows: reduction of Shn3 3'UTR-driven luciferase in osteoblasts – cell-based, Clone20 osteoblasts, firefly luciferase, cherry-picked, dose response (AID 624132).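 Further: firefly luciferase luminescence from reporter carrying the Shn3 3'UTR in osteoblasts.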 The class given is functional.
A short description of assay [17]: Luminescence Cell-Based Dose Confirmation HTS to Identify Inhibitors of Platelet Dense Granule Release. [Related pubchem assays: 1663 (Primary HTS), 1678 (Summary of Project)]. Format: functional.
Assay [18] addresses G-protein coupled receptor 55 (Homo sapiens, UniProt Q9Y2T6). Description: inhibition of LPI-stimulated GPR55 beta-arrestin translocation – imaging, U2OS, beta-arrestin-GFP, LPI agonist, primary screen (AID 2013).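 Further: antagonist potency measured as reduced agonist-driven arrestin aggregation.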 The class given is functional.
The next assay deals with T7, CAAX prenyl protease 2 (Saccharomyces cerevisiae S288c, UniProt Q03530).
T7 sequence (Q03530 whole entry): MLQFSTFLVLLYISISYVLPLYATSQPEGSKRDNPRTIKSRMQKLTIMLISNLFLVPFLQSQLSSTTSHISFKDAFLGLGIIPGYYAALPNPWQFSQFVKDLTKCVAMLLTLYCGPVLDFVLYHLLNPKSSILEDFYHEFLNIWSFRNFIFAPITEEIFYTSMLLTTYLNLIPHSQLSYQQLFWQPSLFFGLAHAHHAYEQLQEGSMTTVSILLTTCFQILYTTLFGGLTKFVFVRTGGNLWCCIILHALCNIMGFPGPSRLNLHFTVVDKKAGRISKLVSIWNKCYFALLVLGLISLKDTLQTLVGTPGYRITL
Format: biochemical.

Assay [19] in a line: Trypanosoma cruzi growth suppression in host cells – NIH3T3 host cells, beta-gal luminescence, confirmation (AID 2044).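 Further: intracellular parasites grown in NIH/3T3 mouse fibroblasts as host cells; luminescent beta-galactosidase reporter signal from transgenic T. cruzi replicating inside host cells; inhibitors lower the luminescence signal.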 The class given is functional, cell-based.
The nature of assay [20]: NIH3T3 cell viability loss – ATP luminescence, mouse fibroblasts, counter-screen, dose response (AID 2010).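 Further: cells exposed to compound for about 90 hours before reading.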 Format: functional, cell-based. A general note: The purpose of a counterscreen is to sort out artefacts and off-target activity.

Calls of active or inactive are those of the source.

G-protein coupled receptor 55, sequence (Q9Y2T6 whole entry): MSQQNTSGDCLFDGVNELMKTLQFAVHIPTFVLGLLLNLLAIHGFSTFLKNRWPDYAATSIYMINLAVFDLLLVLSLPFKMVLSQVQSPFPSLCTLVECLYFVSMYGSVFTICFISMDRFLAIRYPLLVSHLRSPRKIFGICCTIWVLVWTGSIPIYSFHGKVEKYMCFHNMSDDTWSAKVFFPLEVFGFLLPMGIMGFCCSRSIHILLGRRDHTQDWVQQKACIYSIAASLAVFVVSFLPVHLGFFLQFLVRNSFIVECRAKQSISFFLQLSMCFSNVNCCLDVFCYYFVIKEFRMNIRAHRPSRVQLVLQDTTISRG
Glyceraldehyde-3-phosphate dehydrogenase, sequence (P04406 whole entry): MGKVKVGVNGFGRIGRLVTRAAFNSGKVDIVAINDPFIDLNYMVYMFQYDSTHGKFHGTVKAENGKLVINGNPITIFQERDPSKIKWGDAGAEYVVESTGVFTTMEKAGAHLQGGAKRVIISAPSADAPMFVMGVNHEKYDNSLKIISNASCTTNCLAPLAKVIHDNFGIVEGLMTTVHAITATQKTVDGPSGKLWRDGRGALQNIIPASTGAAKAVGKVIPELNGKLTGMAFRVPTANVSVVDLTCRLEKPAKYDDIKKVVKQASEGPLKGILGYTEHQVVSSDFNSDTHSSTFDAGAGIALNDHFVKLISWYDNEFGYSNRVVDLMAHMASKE
T4 sequence (Q9UBE0 whole entry): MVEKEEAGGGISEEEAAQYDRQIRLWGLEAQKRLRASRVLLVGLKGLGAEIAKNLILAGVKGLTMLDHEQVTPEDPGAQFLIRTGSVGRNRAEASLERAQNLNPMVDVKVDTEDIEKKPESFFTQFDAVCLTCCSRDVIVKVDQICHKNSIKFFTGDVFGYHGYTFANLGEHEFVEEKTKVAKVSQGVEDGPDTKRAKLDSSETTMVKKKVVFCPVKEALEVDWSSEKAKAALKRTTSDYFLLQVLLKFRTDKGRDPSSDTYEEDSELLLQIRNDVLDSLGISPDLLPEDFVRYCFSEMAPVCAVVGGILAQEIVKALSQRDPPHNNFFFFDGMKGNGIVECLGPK
T4 sequence (Q9UBT2 whole entry): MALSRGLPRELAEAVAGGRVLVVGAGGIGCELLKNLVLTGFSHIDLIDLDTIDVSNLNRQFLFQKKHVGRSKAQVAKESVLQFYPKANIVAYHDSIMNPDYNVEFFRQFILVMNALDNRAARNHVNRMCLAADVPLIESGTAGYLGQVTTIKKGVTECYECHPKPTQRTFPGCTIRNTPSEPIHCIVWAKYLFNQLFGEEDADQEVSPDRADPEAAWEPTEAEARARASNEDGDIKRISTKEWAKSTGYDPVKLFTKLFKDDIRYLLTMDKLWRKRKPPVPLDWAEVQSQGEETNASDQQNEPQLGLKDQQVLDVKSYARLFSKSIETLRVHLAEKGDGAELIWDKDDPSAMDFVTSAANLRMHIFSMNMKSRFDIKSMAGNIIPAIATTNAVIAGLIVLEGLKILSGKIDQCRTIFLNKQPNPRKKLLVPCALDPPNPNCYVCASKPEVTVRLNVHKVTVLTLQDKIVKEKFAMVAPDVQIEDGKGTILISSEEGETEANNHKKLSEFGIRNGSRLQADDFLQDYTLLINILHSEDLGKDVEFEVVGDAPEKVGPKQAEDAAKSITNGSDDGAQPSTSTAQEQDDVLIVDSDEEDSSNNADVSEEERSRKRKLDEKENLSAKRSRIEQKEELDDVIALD
Luciferin 4-monooxygenase, sequence (P08659 whole entry): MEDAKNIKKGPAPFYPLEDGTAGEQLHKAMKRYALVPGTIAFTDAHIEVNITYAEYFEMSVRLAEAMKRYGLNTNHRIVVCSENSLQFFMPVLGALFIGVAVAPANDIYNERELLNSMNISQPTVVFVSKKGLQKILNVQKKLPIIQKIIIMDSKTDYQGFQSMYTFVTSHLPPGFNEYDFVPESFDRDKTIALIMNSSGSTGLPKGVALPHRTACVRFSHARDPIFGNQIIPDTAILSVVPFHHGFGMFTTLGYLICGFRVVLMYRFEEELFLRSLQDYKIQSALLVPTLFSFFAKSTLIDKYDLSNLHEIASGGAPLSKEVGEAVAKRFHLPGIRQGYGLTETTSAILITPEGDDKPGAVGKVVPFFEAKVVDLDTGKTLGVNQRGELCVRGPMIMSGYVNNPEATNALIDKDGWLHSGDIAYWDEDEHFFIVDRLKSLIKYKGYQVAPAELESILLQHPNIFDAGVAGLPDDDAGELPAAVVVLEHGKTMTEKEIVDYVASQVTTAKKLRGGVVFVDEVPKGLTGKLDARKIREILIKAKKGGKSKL

For `CCOC(=O)c1ccccc1NC(=O)C1COc2ccccc2O1` (stereo not given), the 50% cytotoxic concentration (CC50) in assay [1] is > 40 µM (active).
For the compound `CCN1CCN(c2ncnc3sc(C)c(-c4ccccc4)c23)CC1`, the EC50 in assay [2] was 5.96 µM (active).
Consider `CC(C)(C)c1cc(CN2CCCC(O)C2)c(O)c(C(C)(C)C)c1` (stereo not given), for which the EC50 in assay [3] was 14.9 µM (active); in [4] it was 15.5 µM (active).
On to `O=C1C(Cl)=C(Cl)C(=O)N1c1ccccc1Cl`, for which the IC50 at Bcl-2-related protein A1 [5] is 3.64 µM (active); at Bcl-2-related protein A1 [6], 10.2 µM (active); in [7], > 100 µM (not active).
As to `N#CC1=C(N)NC(SCc2ccc(Cl)cc2)=C(C#N)C12CCCCC2`, the EC50 was 6.43 µM (active) in [3] and 8.84 µM (active) in assay [4].
On to `CC(C)(C)C(=O)COC(=O)c1cc(-c2ccc(Br)cc2)n[nH]1`, for which the IC50 in assay [8] was > 100 µM (inactive); in assay [7], > 100 µM (not active).
In the case of `CC1CCN(CCOCCOc2ccccc2-c2ccccc2)CC1`, in assay [9], the concentration giving a half-maximal response (EC50) was 2.99 µM (active).
On the same count and under the same terms, with `COCCNc1c2c(nc3ccccc13)CCC2` the figure was 5.96 µM (active).
On to `Cc1ccc(NC2=C(Cl)C(=O)N(c3ccc(C)cc3)C2=O)cc1`, for which the IC50 is 2.54 µM (active) at Bcl-2-related protein A1 [5], 1.7 µM (active) at Bcl-2-related protein A1 [6] and > 100 µM (not active) in [7].
`Cc1ccc(NC(=O)COc2ccc(/C=C3/NC(=O)NC3=O)cc2)cc1`: the IC50 is 19.2 µM (active) on SUMO-activating enzyme [10] and 17.1 µM (active) on SUMO-activating enzyme [11].
Regarding `CN(C)c1ccc(/C=C/c2nc3ccccc3s2)cc1`, the AC50 in assay [12] was 25.6 µM (active); in assay [16], 0.494 µM (active). For the same compound, the concentration for a half-maximal effect (EC50) in [13] is > 300 µM (not active); in assay [14], 1.43 µM (active); in assay [15] it was > 300 µM (not active); in assay [17] it was 4.65 µM (active). The CC50 in [1] is 25.3 µM (active).
With `Fc1ccccc1CNCCC(Cc1ccccc1)c1ccc2c(c1)OCO2` (stereo not given), the half-maximal effective concentration (EC50) in assay [9] is 13.3 µM (active).
`Cc1ccc(S(=O)(=O)N2CCN(c3nc(C)c4c(c3C#N)CC(C)(C)OC4)CC2)cc1`: in assay [18], the IC50 was 10.9 µM (inactive).
With `O=C1c2ccccc2C(=O)N1c1nnc[nH]1`, the IC50 in assay [8] was > 100 µM (inactive); in assay [7], > 100 µM (not active).
Regarding `CC(C)(C)n1nnnc1C(c1cccs1)N(Cc1ccccc1)Cc1cccnc1` (stereo not given), in [18], the IC50 was 7.73 µM (active).
Take `COc1ccc(-n2cc(-c3ccccc3)c3c(NN4CCOCC4)ncnc32)cc1`: in [1], the cytotoxic concentration (CC50) was > 40 µM (active).
`COc1ccc(C(CNC(=O)c2cccc3cccnc23)N(C)C)cc1` (stereo not given): the EC50 is 0.531 µM (active) in [9] and 1.19 µM (active) in [2].
`CS(=O)(=O)c1ccc(C(=O)OCC(=O)N(CCc2ccccc2)Cc2ccccc2)cc1`: at CAAX prenyl protease 2, the half-maximal activity concentration (AC50) is 7.85 µM (active).
With `O=C1C(Cl)=C(N2CCN(c3ccc(Cl)c(Cl)c3)CC2)C(=O)N1c1ccc(Cl)c(Cl)c1`, the IC50 is 65.5 µM (active) on Bcl-2-related protein A1 [5], > 100 µM (not active) on Bcl-2-related protein A1 [6] and > 100 µM (not active) in assay [7].
Regarding `O=C(CC12CC3CC(CC(C3)C1)C2)NC(=S)NCc1ccco1`, the IC50 in assay [18] was 0.969 µM (active). Besides, the results for the EC50 in assay [19] and in [20] were 2.29 µM (active) and > 60 µM (inconclusive), respectively.

By CC50 is commonly meant the concentration that lowers cell viability or growth by half. What is called EC50 is the midpoint of the concentration-response curve. Usually IC50 stands for the concentration needed to halve the response being measured. By AC50 is commonly meant the concentration giving half of the maximal activity seen.
